The experiment addresses T1, LXRβ (Homo sapiens, UniProt P55055).
T1 construct: Co-transfection expression plasmids, comprising full-length LXRα (pCMX-h LXRα[…] or LXRβ (pCMX-hLXRβ)); expressed in transfected cells; host or cells: CV-1 African Green Monkey Kidney Cells
T1 sequence (P55055 1-460): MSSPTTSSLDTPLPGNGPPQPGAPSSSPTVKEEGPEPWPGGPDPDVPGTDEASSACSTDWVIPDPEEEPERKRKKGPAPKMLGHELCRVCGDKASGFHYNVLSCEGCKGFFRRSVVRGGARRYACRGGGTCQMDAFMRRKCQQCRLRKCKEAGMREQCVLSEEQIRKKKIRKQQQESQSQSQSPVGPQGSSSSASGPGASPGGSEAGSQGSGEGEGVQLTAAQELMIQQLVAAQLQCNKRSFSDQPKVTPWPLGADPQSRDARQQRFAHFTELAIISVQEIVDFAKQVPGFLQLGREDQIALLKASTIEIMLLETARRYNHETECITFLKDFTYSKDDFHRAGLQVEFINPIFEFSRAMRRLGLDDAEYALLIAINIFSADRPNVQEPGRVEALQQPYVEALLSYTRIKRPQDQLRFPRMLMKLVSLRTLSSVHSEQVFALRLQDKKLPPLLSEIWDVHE
T1 sequence (P19793 1-462 partner): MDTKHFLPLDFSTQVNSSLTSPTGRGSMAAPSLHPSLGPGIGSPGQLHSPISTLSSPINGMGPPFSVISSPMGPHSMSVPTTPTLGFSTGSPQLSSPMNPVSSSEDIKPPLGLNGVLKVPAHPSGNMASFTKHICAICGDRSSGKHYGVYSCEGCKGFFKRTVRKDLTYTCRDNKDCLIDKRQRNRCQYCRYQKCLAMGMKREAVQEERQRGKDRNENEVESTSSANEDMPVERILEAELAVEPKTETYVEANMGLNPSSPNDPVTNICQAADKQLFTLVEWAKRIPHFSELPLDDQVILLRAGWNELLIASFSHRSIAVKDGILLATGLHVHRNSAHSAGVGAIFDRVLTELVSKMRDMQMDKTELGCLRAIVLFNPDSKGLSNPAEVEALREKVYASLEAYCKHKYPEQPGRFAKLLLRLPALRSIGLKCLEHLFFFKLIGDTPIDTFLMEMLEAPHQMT
Description: Co-transfection assay (LXRE luciferase reporter), LXRβ. The experiment is classed as cell-based. Particulars: for EC50: CV-1 cells transfected with pCMX-hLXRβ and LXREx1-Tk-Luciferase, 20 hours incubation; for Emax: LXRβ co-transfection, relative to high control 1-(2,4-difluorobenzyl)-2-oxo-6-(4-phenoxyphenyl)-4-(trifluoromethyl)-1,2-dihydropyridine-3-carbonitrile, read-out: % Efficacy. Put shortly: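 Cell-based LXRβ agonism measured as LXRE-luciferase induction in transiently transfected CV-1 cells after 20 h treatment. Potency is the curve-fit EC50; efficacy is expressed as percent of a full-agonist control's maximal response.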
For orientation: In a reporter assay the amount or activity of a reporter protein is the signal.

With `Cc1nc(-c2cc(-c3cccc(S(C)(=O)=O)c3)ccc2-n2cc(C(F)(F)F)nc2C)c(-c2cccnc2C2CC2)o1` [Example 390, 5-(2-cyclopropylpyridin-3-yl)-2-methyl-4-(4-(2-methyl-4-(trifluoromethyl)-1H-imidazol-1-yl)-3′-(methylsulfonyl)biphenyl-3-yl)oxazole], the EC50 (commonly the concentration giving half of the maximal effect) came out at 2080 nM and the Emax is 62%.

As for `COc1ncc(F)cc1-c1oc(C)nc1-c1cc(-c2cc(F)c(CO)c(S(C)(=O)=O)c2)ccc1-n1cc(C(F)(F)F)nc1C` [Example 401, (3-fluoro-3′-(5-(5-fluoro-2-methoxypyridin-3-yl)-2-methyloxazol-4-yl)-4′-(2-methyl-4-(trifluoromethyl)-1H-imidazol-1-yl)-5-(methylsulfonyl)biphenyl-4-yl)methanol], a half-maximal response (EC50) required 272 nM and the Emax is 60%.

Regarding `Cc1nc(-c2ccc(Cl)cc2Cl)c(-c2cc(-c3cccc(S(C)(=O)=O)c3)ccc2-n2cc(C(F)(F)F)nc2C)o1` [Example 608, 4-(2,4-dichlorophenyl)-2-methyl-5-(4-(2-methyl-4-(trifluoromethyl)-1H-imidazol-1-yl)-3′-(methylsulfonyl)-[1,1′-biphenyl]-3-yl)oxazole], a half-maximal response (EC50) required 90 nM and the Emax was 100%.

Consider `Cc1nc(C(F)(F)F)cn1-c1ccc(-c2cccc(S(C)(=O)=O)c2)cc1-n1nncc1-c1ccc(SC(F)(F)F)cc1` [Example 32, 1-{3′-(methylsulfonyl)-4-[2-methyl-4-(trifluoromethyl)-1H-imidazol-1-yl]biphenyl-3-yl}-5-{4-[(trifluoromethyl)thio]phenyl}-1H-1,2,3-triazole], for which it took 633 nM to reach a half-maximal effect (EC50) and the Emax worked out at 84%.

For the compound `Cc1nc(C(F)(F)F)cn1-c1ccc(-c2cc(F)c(CO)c(S(C)(=O)=O)c2)cc1-n1nncc1-c1ccc2c(c1)OC(F)(F)O2` [Example 52, {3′-[5-(2,2-difluoro-1,3-benzodioxol-5-yl)-1H-1,2,3-triazol-1-yl]-3-fluoro-5-(methylsulfonyl)-4′-[2-methyl-4-(trifluoromethyl)-1H-imidazol-1-yl]biphenyl-4-yl}methanol], it took 172 nM to reach a half-maximal effect (EC50) and the Emax was determined as 82%.

Regarding `Cc1nc(C(F)(F)F)cn1-c1ccc(-c2cccc(S(C)(=O)=O)c2)cc1-c1ccnn1-c1ccc(Cl)cc1` [Example 286, 1-(4-chlorophenyl)-5-{3′-(methylsulfonyl)-4-[2-methyl-4-(trifluoromethyl)-1H-imidazol-1-yl]biphenyl-3-yl}-1H-pyrazole], a half-maximal response (EC50) required 152 nM and the Emax came out at 84%.

In the case of `COc1cnc(-c2oc(C)nc2-c2cc(-c3cc(F)c(CO)c(S(C)(=O)=O)c3)ccc2-n2cc(C(F)(F)F)nc2C)cn1` [Example 413, (3-fluoro-3′-(5-(5-methoxypyrazin-2-yl)-2-methyloxazol-4-yl)-4′-(2-methyl-4-(trifluoromethyl)-1H-imidazol-1-yl)-5-(methylsulfonyl)biphenyl-4-yl)methanol], the response was half-maximal at 426 nM (EC50) and the Emax stood at 63%.

`Cc1nc(-c2cc(-c3ccc(CO)c(S(C)(=O)=O)c3)ccc2-n2cc(C(F)(F)F)nc2C)c(-c2ccc(OC(F)F)c(F)c2)o1` [Example 402, (3′-(5-(4-(difluoromethoxy)-3-fluorophenyl)-2-methyloxazol-4-yl)-4′-(2-methyl-4-(trifluoromethyl)-1H-imidazol-1-yl)-3-(methylsulfonyl)biphenyl-4-yl)methanol]: the EC50 is 43 nM and the Emax turned out to be 88%.

Regarding `Cc1nc(-c2cc(-c3cc(F)c(CO)c(S(C)(=O)=O)c3)ccc2-n2cc(C(F)(F)F)nc2C)c(-c2ccc(F)c(OC(F)F)c2)o1` [Example 461, (3′-(5-(3-(difluoromethoxy)-4-fluorophenyl)-2-methyloxazol-4-yl)-3-fluoro-4′-(2-methyl-4-(trifluoromethyl)-1H-imidazol-1-yl)-5-(methylsulfonyl)biphenyl-4-yl)methanol], the half-maximal effective concentration (EC50) turned out to be 127 nM and the Emax came to 61%.

For the compound `Cc1nc(-c2cc(-c3cccc(C4(C(N)=O)CC4)c3)ccc2-n2cc(C(F)(F)F)nc2C)c(-c2ccc(OC(F)F)c(F)c2)o1` [Example 438, 1-(3′-(5-(4-(difluoromethoxy)-3-fluorophenyl)-2-methyloxazol-4-yl)-4′-(2-methyl-4-(trifluoromethyl)-1H-imidazol-1-yl)biphenyl-3-yl)cyclopropanecarboxamide], a half-maximal response (EC50) required 1380 nM and the Emax worked out at 65%.

Take `Cc1nc(-c2cc(-c3cccc(S(=O)(=O)N(C)C)c3)ccc2-n2cc(C(F)(F)F)nc2C)c(-c2ccc(OC(F)F)cc2)o1` [Example 541, 3′-(5-(4-(difluoromethoxy)phenyl)-2-methyloxazol-4-yl)-dimethyl-4′-(2-methyl-4-(trifluoromethyl)-1H-imidazol-1-yl)-[1,1′-biphenyl]-3-sulfonamide]: the EC50 was found to be 25 nM and the Emax stood at 90%.

With `Cc1nc(C(F)(F)F)cn1-c1ccc(-c2cccc(S(C)(=O)=O)c2)cc1-n1nncc1-c1ccc(Cl)c(OC(F)(F)F)c1` [Example 35, 5-{4-chloro-3-[(trifluoromethyl)oxy]phenyl}-1-{3′-(methylsulfonyl)-4-[2-methyl-4-(trifluoromethyl)-1H-imidazol-1-yl]biphenyl-3-yl}-1H-1,2,3-triazole], the EC50 worked out at 663 nM and the Emax was 68%.

With `Cc1nc(-c2cc(-c3cc(F)c(CO)c(S(C)(=O)=O)c3)ccc2-n2cc(C(F)(F)F)nc2C)c(-c2ccc(OC(F)(F)F)cc2)o1` [Example 373, [3-fluoro-5-(methylsulfonyl)-4′-[2-methyl-4-(trifluoromethyl)-1H-imidazol-1-yl]-3′-(2-methyl-5-{4-[(trifluoromethyl)oxy]phenyl}-1,3-oxazol-4-yl)biphenyl-4-yl]methanol], it took 40 nM to reach a half-maximal effect (EC50) and the Emax amounted to 97%.

With `Cc1nc(C(F)(F)F)cn1-c1ccc(-c2cccc(S(C)(=O)=O)c2)cc1-c1ocnc1-c1ccc(Cl)cc1` [Example 360, 4-(4-chlorophenyl)-5-{3′-(methylsulfonyl)-4-[2-methyl-4-(trifluoromethyl)-1H-imidazol-1-yl]biphenyl-3-yl}-1,3-oxazole], the midpoint of the response, the EC50, lay at 170 nM and the Emax turned out to be 93%.

With `Cc1nc(C(F)(F)F)cn1-c1ccc(-c2cccc(S(C)(=O)=O)c2)cc1-n1nncc1-c1ccc(OC(F)(F)F)cc1F` [Example 61, 5-{2-fluoro-4-[(trifluoromethyl)oxy]phenyl}-1-{3′-(methylsulfonyl)-4-[2-methyl-4-(trifluoromethyl)-1H-imidazol-1-yl]biphenyl-3-yl}-1H-1,2,3-triazole], it took 265 nM to reach a half-maximal effect (EC50) and the Emax was 87%.

As for `Cc1nc(C(F)(F)F)cn1-c1ccc(-c2cccc(S(C)(=O)=O)c2)cc1-n1nncc1-c1ccc2c(c1)OC(F)(F)O2` [Example 73, 5-(2,2-difluoro-1,3-benzodioxol-5-yl)-1-{3′-(methylsulfonyl)-4-[2-methyl-4-(trifluoromethyl)-1H-imidazol-1-yl]biphenyl-3-yl}-1H-1,2,3-triazole], the EC50 stood at 476 nM and the Emax stood at 99%.

In the case of `Cc1nc(-c2cc(-c3cc(F)c(CO)c(S(C)(=O)=O)c3)ccc2-n2cc(C(F)(F)F)nc2C)c(-c2cc(F)cc(Cl)c2)o1` [Example 450, (3′-(5-(3-chloro-5-fluorophenyl)-2-methyloxazol-4-yl)-3-fluoro-4′-(2-methyl-4-(trifluoromethyl)-1H-imidazol-1-yl)-5-(methylsulfonyl)biphenyl-4-yl)methanol], it took 45 nM to reach a half-maximal effect (EC50) and the Emax turned out to be 49%.

Regarding `Cc1nc(Cl)cn1-c1ccc(-c2cccc(S(C)(=O)=O)c2)cc1-n1nncc1-c1ccc(OC(F)(F)F)cc1` [Example 149, 1-[4-(4-chloro-2-methyl-1H-imidazol-1-yl)-3′-(methylsulfonyl)biphenyl-3-yl]-5-{4-[(trifluoromethyl)oxy]phenyl}-1H-1,2,3-triazole], the EC50 is 444 nM and the Emax was found to be 75%.

In the case of `Cc1cn(-c2ccc(-c3cccc(S(C)(=O)=O)c3)cc2-n2nncc2-c2ccc(OC(F)(F)F)cc2)c(C)n1` [Example 83, 1-[4-(2,4-dimethyl-1H-imidazol-1-yl)-3′-(methylsulfonyl)biphenyl-3-yl]-5-{4-[(trifluoromethyl)oxy]phenyl}-1H-1,2,3-triazole], the concentration giving a half-maximal response (EC50) is 1160 nM and the Emax amounted to 69%.
